Patent US6608082B1, “Treatment of erectile dysfunction using isoquinoline compound melanocortin receptor ligands” (Lion Bioscience AG, priority 1998, dated 2003)

Tests used:
MCR-4 = molecular target: T1, MCR-4 (Homo sapiens, UniProt P32245); assay: Melanocortin receptor binding assay, competition with 125I-HP 467, HEK 293 cells expressing hMCR-4; conditions: inhibition of binding of 125I-HP 467, HEK 293 cells expressing MCR-4, TRG 2414 library; for IC50: read-out: MC-4 IC50
T1 construct: expressed in transfected cells; host or cells: HEK 293
T1 sequence (P32245 whole entry): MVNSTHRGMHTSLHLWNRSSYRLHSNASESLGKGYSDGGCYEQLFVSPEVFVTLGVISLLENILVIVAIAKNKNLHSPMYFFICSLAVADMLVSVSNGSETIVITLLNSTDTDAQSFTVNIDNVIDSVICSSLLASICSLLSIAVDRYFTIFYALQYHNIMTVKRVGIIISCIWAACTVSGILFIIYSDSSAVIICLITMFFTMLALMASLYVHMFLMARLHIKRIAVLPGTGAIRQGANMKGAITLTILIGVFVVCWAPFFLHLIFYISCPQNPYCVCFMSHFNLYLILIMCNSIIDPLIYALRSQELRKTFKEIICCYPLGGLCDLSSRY
In short: (§1)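 Intact-cell competition binding, 2.5 hr at 37 °C, in PBS/10% calf serum/1 mM CaCl2; hMCR-4 cells at 4×10^3 per tube, hMCR-1 cells at 2×10^4 per tube. Filtration on BSA/CaCl2-soaked GF/B, cold 50 mM Tris pH 7.4 washes, scintillation count.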

MCR-1 = molecular target: T2, MCR-1 (Homo sapiens, UniProt Q01726); assay: Melanocortin receptor binding assay, competition with 125I-HP 467, HEK 293 cells expressing hMCR-1; conditions: inhibition of binding of 125I-HP 467, HEK 293 cells expressing MCR-1, TRG 2414 library; for IC50: read-out: MC-1 IC50
T2 construct: expressed in transfected cells; host or cells: HEK 293
T2 sequence (Q01726 whole entry): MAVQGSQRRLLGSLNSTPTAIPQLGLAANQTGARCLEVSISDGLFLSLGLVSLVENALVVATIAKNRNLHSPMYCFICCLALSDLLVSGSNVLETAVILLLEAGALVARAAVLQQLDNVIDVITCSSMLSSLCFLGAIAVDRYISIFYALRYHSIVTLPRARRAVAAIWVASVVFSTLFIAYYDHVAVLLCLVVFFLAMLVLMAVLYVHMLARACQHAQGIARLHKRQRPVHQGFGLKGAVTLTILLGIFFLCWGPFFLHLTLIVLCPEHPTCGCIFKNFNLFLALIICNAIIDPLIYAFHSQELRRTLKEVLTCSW
In short: as §1

Structure (SMILES) | IC50 (MCR-4) | MC-1 IC50 (MCR-1) | IC50 (MCR-1) | MC-4 IC50 (MCR-4)
COc1cccc(CNCC2c3ccccc3CN(CCCCC(CN)NCC(C)c3ccc(CC(C)C)cc3)C2c2cc(C(F)(F)F)cc(C(F)(F)F)c2)c1 (stereo not shown) [TRG 2414-60] | 52.6 µM | no fit | – | –
COc1ccc(CNCC2c3ccccc3CN(CCCCC(N)CN)C2c2cc(C(F)(F)F)cc(C(F)(F)F)c2)cc1 (stereo not shown) [TRG 2414-61] | 1.67 µM | – | 10.5 µM | –
COc1ccc(CNCC2c3ccccc3CN(CCCCC(CN)NCCc3ccccc3)C2c2cc(C(F)(F)F)cc(C(F)(F)F)c2)cc1 (stereo not shown) [TRG 2414-62] | 6.87 µM | – | 15.5 µM | –
COc1ccc(CNCC2c3ccccc3CN(CCCCC(CN)NCc3ccccc3)C2c2cc(C(F)(F)F)cc(C(F)(F)F)c2)cc1 (stereo not shown) [TRG 2414-63] | 5.34 µM | – | 14.5 µM | –
COc1ccc(CNCC2c3ccccc3CN(CCCCC(CN)NCC(C)c3ccc(CC(C)C)cc3)C2c2cc(C(F)(F)F)cc(C(F)(F)F)c2)cc1 (stereo not shown) [TRG 2414-64] | 45.5 µM | – | 34.5 µM | –
COc1ccc(CCNCC2c3ccccc3CN(CCCCC(N)CN)C2c2cc(C(F)(F)F)cc(C(F)(F)F)c2)cc1 (stereo not shown) [TRG 2414-65] | 0.26 µM | – | 3.3 µM | –
COc1ccc(CCNCC2c3ccccc3CN(CCCCC(CN)NCCc3ccccc3)C2c2cc(C(F)(F)F)cc(C(F)(F)F)c2)cc1 (stereo not shown) [TRG 2414-66] | 3.2 µM | – | 10.5 µM | –
COc1ccc(CCNCC2c3ccccc3CN(CCCCC(CN)NCc3ccccc3)C2c2cc(C(F)(F)F)cc(C(F)(F)F)c2)cc1 (stereo not shown) [TRG 2414-67] | 5.21 µM | – | 0.033 µM | –
COc1ccc(CCNCC2c3ccccc3CN(CCCCC(CN)NCC(C)c3ccc(CC(C)C)cc3)C2c2cc(C(F)(F)F)cc(C(F)(F)F)c2)cc1 (stereo not shown) [TRG 2414-68] | 17.7 µM | no fit | – | –
NCC(N)CCCCN1Cc2ccccc2C(CNCc2ccccc2)C1c1cc(C(F)(F)F)cc(C(F)(F)F)c1 (stereo not shown) [TRG 2414-69] | 0.64 µM | – | 9.45 µM | –
NCC(CCCCN1Cc2ccccc2C(CNCc2ccccc2)C1c1cc(C(F)(F)F)cc(C(F)(F)F)c1)NCCc1ccccc1 (stereo not shown) [TRG 2414-70] | 9.29 µM | – | 18.3 µM | –
NCC(CCCCN1Cc2ccccc2C(CNCc2ccccc2)C1c1cc(C(F)(F)F)cc(C(F)(F)F)c1)NCc1ccccc1 (stereo not shown) [TRG 2414-71] | 9.06 µM | – | 17 µM | –
CC(C)Cc1ccc(C(C)CNC(CN)CCCCN2Cc3ccccc3C(CNCc3ccccc3)C2c2cc(C(F)(F)F)cc(C(F)(F)F)c2)cc1 (stereo not shown) [TRG 2414-72] | 44.2 µM | no fit | – | –
NCC(N)CCCCN1Cc2ccccc2C(CNC2CCCCCC2)C1c1cc(C(F)(F)F)cc(C(F)(F)F)c1 (stereo not shown) [TRG 2414-73] | 1.01 µM | – | 5.77 µM | –
NCC(CCCCN1Cc2ccccc2C(CNC2CCCCCC2)C1c1cc(C(F)(F)F)cc(C(F)(F)F)c1)NCCc1ccccc1 (stereo not shown) [TRG 2414-74] | 4.57 µM | – | 11.2 µM | –
NCC(CCCCN1Cc2ccccc2C(CNC2CCCCCC2)C1c1cc(C(F)(F)F)cc(C(F)(F)F)c1)NCc1ccccc1 (stereo not shown) [TRG 2414-75] | 3.24 µM | – | 1.92 µM | –
CC(C)Cc1ccc(C(C)CNC(CN)CCCCN2Cc3ccccc3C(CNC3CCCCCC3)C2c2cc(C(F)(F)F)cc(C(F)(F)F)c2)cc1 (stereo not shown) [TRG 2414-76] | 54.4 µM | no fit | – | –
NCC(N)CCCCN1Cc2ccccc2C(CNC2CCCCC2)C1c1cc(C(F)(F)F)cc(C(F)(F)F)c1 (stereo not shown) [TRG 2414-77] | 0.63 µM | – | 3.86 µM | –
NCC(CCCCN1Cc2ccccc2C(CNC2CCCCC2)C1c1cc(C(F)(F)F)cc(C(F)(F)F)c1)NCCc1ccccc1 (stereo not shown) [TRG 2414-78] | 4.26 µM | – | 6.28 µM | –
NCC(CCCCN1Cc2ccccc2C(CNC2CCCCC2)C1c1cc(C(F)(F)F)cc(C(F)(F)F)c1)NCc1ccccc1 (stereo not shown) [TRG 2414-79] | 4.99 µM | – | 10.4 µM | –
CC(C)Cc1ccc(C(C)CNC(CN)CCCCN2Cc3ccccc3C(CNC3CCCCC3)C2c2cc(C(F)(F)F)cc(C(F)(F)F)c2)cc1 (stereo not shown) [TRG 2414-80] | 27 µM | – | 23.7 µM | –
NCC(CCCCN1Cc2ccccc2C(CNCc2ccccc2C(F)(F)F)C1c1cccc(Oc2ccccc2)c1)NCc1ccccc1 (stereo not shown) [TRG 2414-83] | – | – | 31.5 µM | no fit
CC(C)Cc1ccc(C(C)CN[C@H](CN)CCCCN2Cc3ccccc3C(CNCc3ccccc3C(F)(F)F)C2c2cccc(Oc3ccccc3)c2)cc1 (stereo partly shown) [TRG 2414-84] | – | no fit | – | no fit
CCOc1ccccc1CNCC1c2ccccc2CN(CCCCC(CN)NCCc2ccccc2)C1c1cccc(Oc2ccccc2)c1 (stereo not shown) [TRG 2414-86] | 16.2 µM | – | 11.8 µM | –
CCOc1ccccc1CNCC1c2ccccc2CN(CCCCC(CN)NCc2ccccc2)C1c1cccc(Oc2ccccc2)c1 (stereo not shown) [TRG 2414-87] | 11.2 µM | – | 6.65 µM | –
CCOc1ccccc1CNCC1c2ccccc2CN(CCCCC(CN)NCC(C)c2ccc(CC(C)C)cc2)C1c1cccc(Oc2ccccc2)c1 (stereo not shown) [TRG 2414-88] | – | – | 36.5 µM | no fit
COc1ccccc1CCNCC1c2ccccc2CN(CCCCC(N)CN)C1c1cccc(Oc2ccccc2)c1 (stereo not shown) [TRG 2414-89] | 0.73 µM | – | 1.26 µM | –

Structure (SMILES) | IC50 (MCR-4) | MC-1 IC50 (MCR-1) | IC50 (MCR-1) | MC-4 IC50 (MCR-4)
COc1ccccc1CCNCC1c2ccccc2CN(CCCCC(CN)NCCc2ccccc2)C1c1cccc(Oc2ccccc2)c1 (stereo not shown) [TRG 2414-90] | 4.06 µM | – | 3.52 µM | –
COc1ccccc1CCNCC1c2ccccc2CN(CCCCC(CN)NCc2ccccc2)C1c1cccc(Oc2ccccc2)c1 (stereo not shown) [TRG 2414-91] | 2.74 µM | – | 3.21 µM | –
NCC(N)CCCCN1Cc2ccccc2C(CNCCc2cccc(Cl)c2)C1c1cccc(Oc2ccccc2)c1 (stereo not shown) [TRG 2414-93] | 3.8 µM | – | 6.3 µM | –
NCC(CCCCN1Cc2ccccc2C(CNCCc2cccc(Cl)c2)C1c1cccc(Oc2ccccc2)c1)NCCc1ccccc1 (stereo not shown) [TRG 2414-94] | 8.2 µM | – | 16.9 µM | –
NCC(CCCCN1Cc2ccccc2C(CNCCc2cccc(Cl)c2)C1c1cccc(Oc2ccccc2)c1)NCc1ccccc1 (stereo not shown) [TRG 2414-95] | 5.26 µM | – | 8.66 µM | –
CC(C)Cc1ccc(C(C)CNC(CN)CCCCN2Cc3ccccc3C(CNCCc3cccc(Cl)c3)C2c2cccc(Oc3ccccc3)c2)cc1 (stereo not shown) [TRG 2414-96] | 50.6 µM | no fit | – | –
COc1cccc(CNCC2c3ccccc3CN(CCCCC(CN)NCc3ccccc3)C2c2cccc(Oc3ccccc3)c2)c1 (stereo not shown) [TRG 2414-99] | 6.93 µM | – | 5.86 µM | –
COc1cccc(CNCC2c3ccccc3CN(CCCCC(CN)NCC(C)c3ccc(CC(C)C)cc3)C2c2cccc(Oc3ccccc3)c2)c1 (stereo not shown) [TRG 2414-100] | – | no fit | – | no fit
COc1ccc(CNCC2c3ccccc3CN(CCCCC(N)CN)C2c2cccc(Oc3ccccc3)c2)cc1 (stereo not shown) [TRG 2414-101] | 1.26 µM | – | 2.5 µM | –
COc1ccc(CNCC2c3ccccc3CN(CCCCC(CN)NCCc3ccccc3)C2c2cccc(Oc3ccccc3)c2)cc1 (stereo not shown) [TRG 2414-102] | 6.91 µM | – | 12.2 µM | –
COc1ccc(CNCC2c3ccccc3CN(CCCCC(CN)NCC(C)c3ccc(CC(C)C)cc3)C2c2cccc(Oc3ccccc3)c2)cc1 (stereo not shown) [TRG 2414-104] | 46.2 µM | no fit | – | –
COc1ccc(CCNCC2c3ccccc3CN(CCCCC(N)CN)C2c2cccc(Oc3ccccc3)c2)cc1 (stereo not shown) [TRG 2414-105] | 2.68 µM | – | 3.71 µM | –
COc1ccc(CCNCC2c3ccccc3CN(CCCCC(CN)NCCc3ccccc3)C2c2cccc(Oc3ccccc3)c2)cc1 (stereo not shown) [TRG 2414-106] | 10 µM | – | 12.9 µM | –
COc1ccc(CCNCC2c3ccccc3CN(CCCCC(CN)NCc3ccccc3)C2c2cccc(Oc3ccccc3)c2)cc1 (stereo not shown) [TRG 2414-107] | 8.21 µM | – | 6.55 µM | –
COc1ccc(CCNCC2c3ccccc3CN(CCCCC(CN)NCC(C)c3ccc(CC(C)C)cc3)C2c2cccc(Oc3ccccc3)c2)cc1 (stereo not shown) [TRG 2414-108] | 49.2 µM | no fit | – | –
NCC(N)CCCCN1Cc2ccccc2C(CNCc2ccccc2)C1c1cccc(Oc2ccccc2)c1 (stereo not shown) [TRG 2414-109] | 0.91 µM | – | 3.06 µM | –
NCC(CCCCN1Cc2ccccc2C(CNCc2ccccc2)C1c1cccc(Oc2ccccc2)c1)NCCc1ccccc1 (stereo not shown) [TRG 2414-110] | 10 µM | – | 11.1 µM | –
NCC(CCCCN1Cc2ccccc2C(CNCc2ccccc2)C1c1cccc(Oc2ccccc2)c1)NCc1ccccc1 (stereo not shown) [TRG 2414-111] | 13.1 µM | – | 7.74 µM | –
CC(C)Cc1ccc(C(C)CNC(CN)CCCCN2Cc3ccccc3C(CNCc3ccccc3)C2c2cccc(Oc3ccccc3)c2)cc1 (stereo not shown) [TRG 2414-112] | 51.3 µM | no fit | – | –
NCC(N)CCCCN1Cc2ccccc2C(CNC2CCCCCC2)C1c1cccc(Oc2ccccc2)c1 (stereo not shown) [TRG 2414-113] | 1.78 µM | – | 2.96 µM | –
NCC(CCCCN1Cc2ccccc2C(CNC2CCCCCC2)C1c1cccc(Oc2ccccc2)c1)NCCc1ccccc1 (stereo not shown) [TRG 2414-114] | 4.83 µM | – | 8.96 µM | –
NCC(CCCCN1Cc2ccccc2C(CNC2CCCCCC2)C1c1cccc(Oc2ccccc2)c1)NCc1ccccc1 (stereo not shown) [TRG 2414-115] | 5.6 µM | – | 3.71 µM | –
CC(C)Cc1ccc(C(C)CNC(CN)CCCCN2Cc3ccccc3C(CNC3CCCCCC3)C2c2cccc(Oc3ccccc3)c2)cc1 (stereo not shown) [TRG 2414-116] | – | – | 53.7 µM | no fit
NCC(N)CCCCN1Cc2ccccc2C(CNC2CCCCC2)C1c1cccc(Oc2ccccc2)c1 (stereo not shown) [TRG 2414-117] | 1.27 µM | – | 1.93 µM | –
NCC(CCCCN1Cc2ccccc2C(CNC2CCCCC2)C1c1cccc(Oc2ccccc2)c1)NCc1ccccc1 (stereo not shown) [TRG 2414-119] | 4.77 µM | – | 5.01 µM | –
CC(C)Cc1ccc(C(C)CNC(CN)CCCCN2Cc3ccccc3C(CNC3CCCCC3)C2c2cccc(Oc3ccccc3)c2)cc1 (stereo not shown) [TRG 2414-120] | 58.8 µM | – | 25 µM | –
